Data set [1] is described as follows: Blood glucose levels in unanesthetized young pigs. It is filed as in vivo, pig. As to conditions: intravenous infusion 3 h or intragastric bolus. The source says:
(§1) The pigs were given equicaloric amount of either:

Data set [2] in a line: RS-butanediol concentration in blood of pigs. Type of data set: in vivo, pig.
From the text: as §1

Data set [3] concerns ketone bodies (R-3-hydroxybutyrate+S-3-hydroxybutyrate+acetoacetate). Nature of the data set: Total ketone body concentrations in pigs. Type of data set: in vivo, pig. The protocol: as §1
The total concentration of physiological and unphysiological ketone bodies (R-3-hydroxybutyrate+S-3-hydroxybutyrate+acetoacetate) never exceeded 0.8 mM in the animal receiving RS-butanediol by the continuous intravenous route. […] Therefore, there was no marked acidosis in any of the groups.

Data set [4] relates to mitochondrial [NADH]/[NAD^+ ]. The data set can be described thus: Redox parameters in blood of pigs. Type of data set: in vivo, pig. Particulars: reflects the mitochondrial [NADH]/[NAD^+ ].
From the text: as §1

Data set [5] can be described thus: Volume of distribution of butanediol. It is filed as in vivo. The source says: In other experiments, the volume of distribution of butanediol is equal to 2/3 of the body wt, i.e. total body water.
A short description of data set [6]: Noted metabolism of esters compared with butanediol alone. Type of data set: in vivo. As to conditions: compared with physiological oxido-reduction ratio.
For data set [7] the following is noted: cited from earlier work.
For data set [8], the system named is ethanol withdrawal syndrome. Particulars: rats; cited from earlier work.
The nature of data set [9]: Preliminary results with 1,3-pentanediol and its esters. Particulars: liver.
The subject of data set [10] is alloxan-diabetic rats. Particulars: cited from earlier work.
Data set [11] deals with mammalian cells. As to conditions: cited from earlier work.
Data set [12] relates to [NADH]/[NAD^+ ]. As to conditions: inhibition of gluconeogenesis and alcoholic hypoglycemia; cited from earlier work.

On to `CC(O)CCO` (racemic) [RS-butanediol, 1,3-butanediol], for which the “Glucose levels / hypoglycemic effect” value in [1] is listed as “do not exert a hypoglycemic effect”. For the same compound, in data set [2] (after intragastric bolus), the “linear decrease of butanediol concentration in blood, time” value stood at 4 h. For the same compound, in data set [2] (pig, blood, constant intravenous infusion for 3 h, 25% of hourly caloric requirement, read-out: RS-butanediol (free butanediol) concentration), the concentration at 3 h stood at 600 µM. Also, the Cmax in [2] (pig, blood, intragastric bolus, 15% of daily caloric requirements, read-out: concentration of butanediol in the blood, peak) worked out at 25000 µM. In addition, in [3] (continuous intravenous infusion), the “total concentration of ketone bodies” value was at most 0.8 mM. Also, the “total ketone body concentration” value in data set [3] (intragastric bolus) was “about 1.5 mM”. Also, the “[R-3-hydroxybutyrate]/[acetoacetate] ratio” value in data set [4] is on record as “increased”. In data set [5] (butanediol liberated in blood from plasma esterases), the osmotic effect entry is reported as “does not exert any osmotic effect”. Moreover, the “rate of distribution into total body water” value in data set [5] (compared with a tracer of water) was “at the same rate as a tracer of water”. In [5] (i.e. total body water), the volume of distribution is recorded as 2/3. In [6], the “3-hydroxybutyrate and acetoacetate ratio after metabolism in the liver” value is “more reduced than physiological”. In addition, in data set [7] (diet containing 5%, humans), the adverse effect entry is recorded as “no adverse effect” and the nitrogen sparing result was “nitrogen was spared”. Further, the “metabolism in the liver” value in data set [7] (via alcohol and aldehyde dehydrogenase) is reported as “metabolised in the liver to DL-3-hydroxybutyrate”. The “effect on ethanol withdrawal syndrome” value in [8] is recorded as “alleviates the ethanol withdrawal syndrome in rats”.

Regarding `CCC(O)CCO` (racemic) [RS-1,3-pentanediol], the “gluconeogenic and ketogenic substrate” value in data set [9] was “is a gluconeogenic and a ketogenic substrate”.

As to `C[C@H](O)CC(=O)O` [L-β-hydroxybutyrate], the antidiabetic properties result in data set [10] (test not stated) is on record as “has demonstrated interesting antidiabetic properties”. Besides, the “use by mammalian cells” value in [11] is “very well used by mammalian cells”.

For `C[C@H](O)CCO` [L-1,3-butanediol], in [10] (alloxan-diabetic rats), the blood glucose level result is “useful in reducing the blood glucose level”.

Consider `CCO` [ethanol], for which the redox shift result in data set [12] is “an increase in [NADH]/[NAD^+ ]”.

The values above are taken from patent publication US5126373A, “Composition for parenteral and oral nutrition” (priority 1987, dated 1992).
